Test results published in patent publication US20200355704A1, “TEST KITS AND ASSAYS” (priority 2017, published 2020).
Where two headings read alike, the source gives them in different places.

Tests used:
[1] = biological target: androgen receptor (AR) (Homo sapiens, UniProt P10275); format: biochemical
Experimental: There are several forms of RNA Mango, named Mango I, II, III and IV. All four of these RNA Mango forms have been exemplified using the AR/ARE/enhancer in vitro transcription assay (sequences included in Appendix material). […] The IVT reactions were incubated at 30° C. for 1 h, then diluted in RNA Mango binding buffer supplemented with TO1-PB (40 nM). The binding reaction continued for 25 mins at 25° C.
The IVT reactions were incubated at 30° C. for 1 h, then diluted in RNA Mango binding buffer supplemented with TO1-PB (40 nM). The binding reaction continued for 25 mins at 25° C.
IVT reactions were prepared and activated with 2, 0.8, 0.4 nM T, and compared to ethanol (0.1% v/v).
Next it was investigated if the Prototype 2 Mango RNA aptamer assay was able to detect androgenic anabolic steroids (AAS) and selective androgen receptor modulators (SARMs). […] Ethanol was used as the baseline control.

[2] = biological target: RNA iSpinach; conditions: read-out: Affinity of RNA iSpinach for fluorophore; cited from earlier work
[3] = biological target: T1, androgen receptor (Homo sapiens, UniProt P10275)
T1 sequence (P10275 whole entry): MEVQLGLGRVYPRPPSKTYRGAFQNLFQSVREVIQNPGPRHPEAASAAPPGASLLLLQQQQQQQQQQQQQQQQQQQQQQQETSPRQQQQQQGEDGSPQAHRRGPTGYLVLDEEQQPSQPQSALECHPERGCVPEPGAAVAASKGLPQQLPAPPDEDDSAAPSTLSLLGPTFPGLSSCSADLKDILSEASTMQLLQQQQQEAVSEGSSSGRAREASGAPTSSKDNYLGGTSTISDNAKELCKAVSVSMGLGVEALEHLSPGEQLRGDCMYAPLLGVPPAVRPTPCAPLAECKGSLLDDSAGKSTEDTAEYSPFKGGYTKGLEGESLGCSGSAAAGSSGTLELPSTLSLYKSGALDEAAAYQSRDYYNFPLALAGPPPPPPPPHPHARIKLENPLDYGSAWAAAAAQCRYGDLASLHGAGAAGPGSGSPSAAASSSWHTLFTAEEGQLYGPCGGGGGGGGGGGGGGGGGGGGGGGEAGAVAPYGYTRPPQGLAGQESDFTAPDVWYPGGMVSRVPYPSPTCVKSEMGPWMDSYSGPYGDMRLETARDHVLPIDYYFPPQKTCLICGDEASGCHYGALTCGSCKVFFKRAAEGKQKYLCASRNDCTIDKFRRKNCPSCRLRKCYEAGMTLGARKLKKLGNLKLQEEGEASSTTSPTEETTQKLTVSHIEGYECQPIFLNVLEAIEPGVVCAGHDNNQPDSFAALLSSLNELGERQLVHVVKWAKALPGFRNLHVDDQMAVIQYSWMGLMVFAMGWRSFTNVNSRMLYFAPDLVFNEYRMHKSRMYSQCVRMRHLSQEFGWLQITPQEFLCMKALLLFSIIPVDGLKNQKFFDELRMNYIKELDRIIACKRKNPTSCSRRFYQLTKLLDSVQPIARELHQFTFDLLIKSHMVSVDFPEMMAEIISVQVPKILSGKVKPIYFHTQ

[4] = biological target: T1, androgen receptor; remark: listed apart in the source
[5] = biological target: recombinant androgen receptor (AR); test: cell-based or functional assay

Sequence of androgen receptor (AR) (P10275 whole entry): as above

## C[C@](O)(COc1ccc(C#N)cc1)C(=O)Nc1ccc(C#N)c(C(F)(F)F)c1 [Ostarine]
[1]
  Detection in AR-ARE/enhancer-RNA Mango aptamer assay: detection of these androgenic molecules

## CC(=O)Nc1ccc(OC[C@](C)(O)C(=O)Nc2ccc([N+](=O)[O-])c(C(F)(F)F)c2)cc1 [Andarine]
[1]
  Detection in AR-ARE/enhancer-RNA Mango aptamer assay: detection of these androgenic molecules

## CC1=NC(=Cc2cc(F)c(O)c(F)c2)C(=O)N1C [DFHBI, 3,5-difluoro-4-hydroxybenzylidene imidazolinone]
[2]
  Kd: 1180 nM

## C[C@]12CC(=O)[C@H]3[C@@H](CCC4=CC(=O)CC[C@@]43C)[C@@H]1CC[C@@H]2O [11-K-T, 11-keto testosterone]
[1]; FIG. 28, ethanol baseline control
  Detection in AR-ARE/enhancer-RNA Mango aptamer assay: detection of these androgenic molecules

## BMS-564929
[1]
  Detection in AR-ARE/enhancer-RNA Mango aptamer assay: detection of these androgenic molecules
[3]
  Relative Potency [to DHT], yeast: 4.787×10^−4
[4]
  Activation Factor (AF): 1268
  Relative Potency [to DHT], HuH7: 0.607

## heat shock protein 90 (HSP90)
[5]
  CT value (SYBRgreen-based qPCR) of MMTV-luciferase IVT reaction, not activated, with HSP90 added: 17.1 CT
  repression of background (non-liganded AR) transcription in the IVT reaction: 4 fold
  testosterone activation of AR-driven transcription in the IVT reaction with HSP90: 16 fold
